Results on 12 compounds are retold here after PubChem BioAssay (NCI).

Some test systems named below: MDA-MB-435; OVCAR-5 ovarian; SK-MEL-2 melanoma; A549 NSCLC; OVCAR-8 ovarian; EKVX NSCLC; SF-268 CNS; UACC-62 melanoma; K-562 leukemia; A498 renal.
Common to all, as to test: DTP human tumour cell line panel, 48 h

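Cells were grown in 96-well plates and exposed to each compound for 48 hours at five concentrations; endpoints were interpolated linearly between bracketing concentrations, or set to the highest concentration if not reached. GI50: concentration for 50% inhibition of growth. Definition used: TGI = concentration required for complete inhibition of growth.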 A value given as a limit tells only on which side of the number the result lay.

Consider `N=c1c2c(=N)n3c(nc2nc2n1-c1ccccc1Sc1ccccc1-2)sc1cc(Cl)ccc13`, for which the GI50 with MDA-MB-435 is 3.11 µM; in the assay on OVCAR-5 ovarian it was 7.55 µM; in the assay with SK-MEL-2 melanoma it was 1.44 µM; with A549 NSCLC it was 2.25 µM; with OVCAR-8 ovarian, 3.1 µM; in the assay with EKVX NSCLC, 1.24 µM. Besides, the GI50 with SF-268 CNS is 3.42 µM; in the assay on UACC-62 melanoma, 1.16 µM; with K-562 leukemia it was 1.62 µM; with A498 renal it was 1.79 µM. Moreover, the concentration for total growth inhibition (TGI) in the assay with MDA-MB-435 was more than 100 µM; in the assay with OVCAR-5 ovarian, 38.9 µM; in the assay with SK-MEL-2 melanoma, 13.9 µM; with A549 NSCLC, more than 100 µM; in the assay with OVCAR-8 ovarian, 67.9 µM; with EKVX NSCLC it was 7.46 µM. Moreover, the total growth inhibition concentration (TGI) in the assay with SF-268 CNS was more than 100 µM; with UACC-62 melanoma, 9.44 µM; in the assay with K-562 leukemia it was more than 100 µM; with A498 renal it was 6.33 µM.
Consider `COc1cc2nc3cc([N+](=O)[O-])ccc3c(NCCNCC(C)(C)O)c2cc1OC`, for which the GI50 in the assay on MDA-MB-435 was 0.6 µM; in the assay with OVCAR-5 ovarian, 2.22 µM; with SK-MEL-2 melanoma, 0.432 µM; with A549 NSCLC, 1.22 µM; in the assay on OVCAR-8 ovarian, 0.769 µM; with EKVX NSCLC it was 1.72 µM. Moreover, the GI50 was 0.491 µM in the assay with SF-268 CNS and 1.83 µM in the assay with A498 renal. The TGI is 1.93 µM in the assay with MDA-MB-435; 8.87 µM in the assay with OVCAR-5 ovarian; 1.75 µM in the assay with SK-MEL-2 melanoma; 5.64 µM in the assay with A549 NSCLC; 4.48 µM with OVCAR-8 ovarian; 5.7 µM in the assay on EKVX NSCLC. The TGI with SF-268 CNS is 2.54 µM; in the assay with A498 renal, 3.63 µM.
In the case of `CN(Cc1cnc2nc(N)nc(N)c2n1)c1ccc(C(=O)NC(CCC(=O)O)C(=O)O)cc1Br` (stereo not given), the 50% growth inhibitory concentration (GI50) with MDA-MB-435 is less than 0.01 µM; in the assay on OVCAR-5 ovarian, less than 0.031 µM; in the assay on SK-MEL-2 melanoma it was less than 0.01 µM; with A549 NSCLC, less than 0.01 µM; in the assay on OVCAR-8 ovarian it was less than 0.01 µM; in the assay with EKVX NSCLC, less than 0.01 µM. For the same compound, the GI50 in the assay on SF-268 CNS, in the assay on UACC-62 melanoma, in the assay with K-562 leukemia and with A498 renal was less than 0.01 µM in each case. In addition, the total growth inhibition concentration (TGI) with MDA-MB-435 is 5.15 µM; in the assay with OVCAR-5 ovarian, more than 100 µM; in the assay on SK-MEL-2 melanoma, more than 100 µM; in the assay with A549 NSCLC, more than 100 µM; in the assay on OVCAR-8 ovarian it was more than 100 µM; in the assay with EKVX NSCLC, 48.3 µM. For the same compound, the TGI in the assay on SF-268 CNS is 13.1 µM; in the assay on UACC-62 melanoma, 7.35 µM; in the assay with K-562 leukemia it was more than 100 µM; in the assay with A498 renal, 4.71 µM.
For the compound `CO[C@H]1C[C@@H]2CC[C@@H](C)[C@@](O)(O2)C(=O)C(=O)N2CCCC[C@H]2C(=O)O[C@H]([C@H](C)C[C@@H]2CC[C@@H](OCCO)[C@H](OC)C2)CC(=O)[C@H](C)C=C(C)[C@@H](O)[C@@H](OC)C(=O)[C@H](C)C[C@H](C)/C=C/C=C/C=C1C`, the GI50 is less than 0.0332 µM with MDA-MB-435; less than 0.01 µM with OVCAR-5 ovarian; less than 0.01 µM in the assay on A549 NSCLC; less than 0.01 µM in the assay on EKVX NSCLC; 0.269 µM in the assay on SF-268 CNS; 0.342 µM with UACC-62 melanoma. For the same compound, the GI50 in the assay on K-562 leukemia was 2.41 µM; with A498 renal, less than 0.01 µM. Also, the TGI in the assay with MDA-MB-435 stood at 22.1 µM; in the assay on OVCAR-5 ovarian, 20.3 µM; in the assay with SK-MEL-2 melanoma, 21.4 µM; in the assay on A549 NSCLC it was 22.3 µM; in the assay with OVCAR-8 ovarian it was 29.5 µM; in the assay on EKVX NSCLC, 21.5 µM. For the same compound, the TGI with SF-268 CNS turned out to be 21.1 µM; with UACC-62 melanoma it was 19.9 µM; in the assay on K-562 leukemia, 31.4 µM; with A498 renal, 16.3 µM.
With `Cc1ccc(S(=O)(=O)NC(CN)C(=O)O)cc1` (stereo not given), the TGI in the assay with MDA-MB-435, with OVCAR-5 ovarian, in the assay with SK-MEL-2 melanoma, in the assay with A549 NSCLC, in the assay on OVCAR-8 ovarian and in the assay on EKVX NSCLC was more than 100 µM in each case. For the same compound, the total growth inhibition concentration (TGI) with SF-268 CNS, in the assay on UACC-62 melanoma and in the assay on A498 renal was more than 100 µM in each case.
Consider `O=C1Cc2cc(C(=O)NC3C[C@H]4CC[C@@H](C3)N4S(=O)(=O)CC3CCN(CCCC(F)(F)F)CC3)c(Cl)cc2N1` (stereo not given in full), for which the GI50 in the assay on MDA-MB-435, with OVCAR-5 ovarian, in the assay on SK-MEL-2 melanoma, with A549 NSCLC, in the assay on OVCAR-8 ovarian and in the assay on EKVX NSCLC was more than 100 µM throughout. In addition, the GI50 in the assay on SF-268 CNS, in the assay on UACC-62 melanoma and in the assay on A498 renal was more than 100 µM throughout. Also, the TGI with MDA-MB-435, in the assay with OVCAR-5 ovarian, with SK-MEL-2 melanoma, in the assay on A549 NSCLC, with OVCAR-8 ovarian and in the assay with EKVX NSCLC was more than 100 µM throughout. Moreover, the concentration for total growth inhibition (TGI) in the assay on SF-268 CNS, with UACC-62 melanoma and in the assay with A498 renal was more than 100 µM in each case.
Consider `CCn1c(-c2nonc2N)nc2cncc(C(=O)N3CC[C@H](N)C3)c21`, for which the GI50 with MDA-MB-435 was more than 25 µM; in the assay with OVCAR-5 ovarian, more than 25 µM; in the assay with SK-MEL-2 melanoma, more than 25 µM; in the assay with A549 NSCLC it was 7.29 µM; in the assay on OVCAR-8 ovarian it was more than 25 µM; with SF-268 CNS, more than 19.5 µM. The GI50 in the assay with UACC-62 melanoma was more than 25 µM; in the assay on K-562 leukemia, more than 25 µM; in the assay on A498 renal, 1.2 µM. Besides, the TGI with MDA-MB-435, with OVCAR-5 ovarian, with SK-MEL-2 melanoma, in the assay with A549 NSCLC, with OVCAR-8 ovarian and in the assay with SF-268 CNS was more than 25 µM in each case. For the same compound, the TGI with UACC-62 melanoma, with K-562 leukemia and in the assay with A498 renal was more than 25 µM in each case.
As for `Cn1cc(C2=C(c3cn(CCCCCSC(=N)N)c4ccccc34)C(=O)NC2=O)c2ccccc21`, the GI50 in the assay on MDA-MB-435 was 1.06 µM; with OVCAR-5 ovarian, 4.48 µM; in the assay on SK-MEL-2 melanoma, 3.13 µM; in the assay on A549 NSCLC it was 4.4 µM; in the assay with OVCAR-8 ovarian it was 3.61 µM; with SF-268 CNS it was 3.86 µM. Further, the GI50 with UACC-62 melanoma was 3.87 µM; in the assay with K-562 leukemia, 1.49 µM; with A498 renal, 3.65 µM. Besides, the TGI in the assay with MDA-MB-435 came out at 4.07 µM; in the assay on OVCAR-5 ovarian, 8.26 µM; in the assay on SK-MEL-2 melanoma it was 6.43 µM; with A549 NSCLC, 8.65 µM; in the assay with OVCAR-8 ovarian, 10.4 µM; in the assay with SF-268 CNS, 7.8 µM. Also, the total growth inhibition concentration (TGI) with UACC-62 melanoma was 7.25 µM; in the assay on K-562 leukemia, 5.31 µM; with A498 renal it was 6.97 µM.
As for `COc1cc(-c2nn(-c3cccc(NC(=O)c4ccc(Cl)c(C(F)(F)F)c4)c3)cc2-c2ccncc2)ccc1Cl`, the GI50 with MDA-MB-435 was 0.658 µM; with OVCAR-5 ovarian it was more than 28.4 µM; with SK-MEL-2 melanoma it was 1.42 µM; in the assay on A549 NSCLC it was 2.41 µM; in the assay with OVCAR-8 ovarian it was 3.35 µM; in the assay on SF-268 CNS it was 3.24 µM. Further, the GI50 was 1.6 µM in the assay with UACC-62 melanoma, 1.21 µM in the assay with K-562 leukemia and 1.02 µM in the assay on A498 renal. Also, the TGI is 1.79 µM in the assay with MDA-MB-435; more than 32.5 µM with OVCAR-5 ovarian; 10.1 µM with SK-MEL-2 melanoma; more than 32.5 µM in the assay on A549 NSCLC; more than 32.5 µM in the assay with OVCAR-8 ovarian; more than 32.5 µM in the assay on SF-268 CNS. In addition, the total growth inhibition concentration (TGI) with UACC-62 melanoma is more than 32.5 µM; with K-562 leukemia, more than 32.5 µM; in the assay with A498 renal it was 7.01 µM.
For the compound `c1ccc2c3c([nH]c2c1)C(c1ccc(C2NCCc4c2[nH]c2ccccc42)cc1)NCC3` (stereo not given), the GI50 was 0.359 µM in the assay with MDA-MB-435; 1.81 µM with OVCAR-5 ovarian; 1.7 µM in the assay on SK-MEL-2 melanoma; 1.1 µM in the assay with A549 NSCLC; 1.42 µM in the assay with EKVX NSCLC; 1.12 µM in the assay with SF-268 CNS. Also, the values for the GI50 in the assay on UACC-62 melanoma, in the assay on K-562 leukemia and in the assay on A498 renal were 0.749 µM, 0.244 µM and 1.64 µM, respectively. The TGI with MDA-MB-435 turned out to be 1.27 µM; in the assay with OVCAR-5 ovarian it was 4.17 µM; in the assay on SK-MEL-2 melanoma it was 3.57 µM; in the assay on A549 NSCLC, 2.54 µM; in the assay with EKVX NSCLC, 3.39 µM; in the assay with SF-268 CNS, 2.57 µM. Also, the results for the TGI in the assay on UACC-62 melanoma, with K-562 leukemia and in the assay with A498 renal were 2.13 µM, 0.488 µM and 8.87 µM, respectively.
As for `O=C1NC(=NCCCc2ccccc2)S/C1=C\c1ccc2ncccc2c1`, the GI50 with MDA-MB-435 was 5.81 µM; in the assay on OVCAR-5 ovarian, 8.09 µM; in the assay on SK-MEL-2 melanoma it was 4.96 µM; with A549 NSCLC it was 4.68 µM; in the assay with OVCAR-8 ovarian it was 5.94 µM; with SF-268 CNS, 5.39 µM. The GI50 in the assay with UACC-62 melanoma is 4.65 µM; with K-562 leukemia, 9.12 µM; with A498 renal, 3.81 µM. Also, the TGI is more than 18 µM in the assay on MDA-MB-435; more than 25 µM in the assay on OVCAR-5 ovarian; 9.67 µM with SK-MEL-2 melanoma; 13.8 µM in the assay with A549 NSCLC; 16.8 µM in the assay with OVCAR-8 ovarian; 12.5 µM in the assay with SF-268 CNS. Further, the TGI in the assay on UACC-62 melanoma was 10.9 µM; in the assay with K-562 leukemia, more than 25 µM; in the assay with A498 renal it was 8.09 µM.
For the compound `O=C1c2ccccc2C(=O)c2c(OCCOCCO)cccc21`, the concentration for total growth inhibition (TGI) with MDA-MB-435, in the assay with OVCAR-5 ovarian, in the assay on SK-MEL-2 melanoma, with A549 NSCLC, in the assay with OVCAR-8 ovarian and with EKVX NSCLC was more than 100 µM each time. Further, the values for the TGI in the assay with SF-268 CNS, with UACC-62 melanoma and in the assay with K-562 leukemia were more than 100 µM, 19.1 µM and more than 100 µM, respectively.
